According to patent publication US20230257413A1, “ARTIFICIAL NUCLEIC ACID, METHOD FOR PRODUCING SAME, AND USE THEREOF” (RIKEN GENESIS CO., LTD., priority 2020, published 2023):

Legend:
[1] = test system: single-stranded RNA (5′-r(agcaaaaaacgc)-3′; SEQ ID NO: 7) (a sense strand); experiment: Measurement of melting temperatures (Tm) of oligonucleotides, double strand forming capability with single-stranded RNA; assay type: binding; conditions: antisense 5′-d(gcgnnnnnngct)-3′ (SEQ ID NO: 4); 100 mM NaCl, 10 mM sodium phosphate buffer pH 7.2, 4 μM each strand
[2] = test system: single-stranded DNA (5′-d(agcaaaaaacgc)-3′; SEQ ID NO: 6) (a sense strand); experiment: Measurement of melting temperatures (Tm) of oligonucleotides, double strand forming capability with single-stranded DNA; assay type: binding; conditions: antisense 5′-d(gcgnnnnnngct)-3′ (SEQ ID NO: 4); 100 mM NaCl, 10 mM sodium phosphate buffer pH 7.2, 4 μM each strand

Row | Substance | Tm value (target: ssRNA) [1] | Tm value (target: ssDNA) [2]
1 | (R)EDM-T: SEQ ID NO: 4, n = formula (6) unit: thymin-1-yl, n 1, R^3 3-(N,N-dimethylamino)propyl, R^4 (R)-ethyl, R^5 H (DNA AGCAAAAAACG; n (R)EDM-T modified units, chemistry not fully specified; the letters are possibly those of the target site) | 89 °C | 77 °C
2 | DNA-T: 5′-d(gcgnnnnnngct)-3′ (SEQ ID NO: 4), n = formula (7) unit, Base thymin-1-yl, R^a H (natural DNA T) (DNA AGCAAAAAACGC; n natural T, chemistry not fully specified; the letters are possibly those of the target site) | 48 °C | 52 °C
